Test results as given in patent US20110281747A1, “BIOMARKERS FOR PREDICTING RAPID RESPONSE TO HCV TREATMENT” (ROCHE MOLECULAR SYSTEMS, INC., priority 2009, published 2011).

What was measured:
[1] = Phase II clinical trial of RO4588161: premature withdrawal for safety reasons; type: in vivo, human
Source text: This was a phase 2A, multi-center, randomized, double-blinded (RO4588161 and ribavirin were double-blinded and Pegasys was open labeled), active-controlled, with a parallel-group study which is ongoing. A screening period (time from the first screening assessment to the first administration of test drug) of 35 days preceded the treatment portion of the trial (FIG. 1). The HCV genotype and HCV RNA titer of each patient was confirmed during the screening period and only treatment-naïve patients with HCV genotype-1 and HCV RNA titer ≧50,000 IU/mL were eligible for enrollment.
One hundred and seven male and female patients between 18 and 66 years of age were enrolled into the study. Patients were randomized into four treatment groups: • Group A/Dual 1500 [RO4588161 1500 mg oral, twice daily+Pegasys 180 μg subcutaneous, once weekly] for 4 weeks—21 patients, • Group B/Dual 3000 [R04588161 3000 mg oral, twice daily+Pegasys 180 μg subcutaneous, once weekly] for 4 weeks—34 patients, • Group C/Triple 1500 [R04588161 1500 mg oral, twice daily+Pegasys 180 μg subcutaneous, once weekly+ribavirin 1000 mg (<75 kg) or 1200 mg (≧75 kg) oral daily] for 4 weeks—31 patients or • Group D/standard of care (SOC) [Pegasys 180 μg subcutaneous, once weekly+ribavirin 1000 mg (<75 kg) or 1200 mg (≧75 kg) oral daily] for 4 weeks—21 patients […]

[2] = tested on: HCV; conditions: monotherapy; cited from earlier work
[3] = in vivo; cited from earlier work

CC(C)C(=O)OC[C@@]1(N=[N+]=[N-])O[C@@H](n2ccc(N)nc2=O)[C@H](OC(=O)C(C)C)[C@@H]1OC(=O)C(C)C [RO4588161, Isobutyric acid (2R,3S,4R,5R)-5-(4-amino-2-oxo-2H-pyrimidin-1-yl)-2-azido-3,4-bis-isobutyryloxy-tetrahydro-furan-2-ylmethyl ester]
patients who prematurely withdrew for safety reasons from treatment ([1]; among the 104 evaluable patients): 43 patients

NC(=O)c1ncn([C@@H]2O[C@H](CO)[C@@H](O)[C@H]2O)n1 [ribavirin, 1-((2R,3R,4S,5R)-3,4-Dihydroxy-5-hydroxymethyl-tetrahydro-furan-2-yl)-1H-[1,2,4]triazole-3-carboxylic acid amide]
patients who prematurely withdrew for safety reasons from treatment ([1]; both, human, in vivo, 4 weeks): 5 patients
effect on serum levels of HCV-RNA [2]: does not lower serum levels of HCV-RNA
patients whose serum amino transferase levels are reduced to normal [2]: 40%
patients with hemolytic anemia requiring dose reduction or discontinuation of ribavirin therapy [3]: 10 to 20%
